Calls of active or inactive are those of the source.
Key:
cells [1] = format: functional, cell-based
cells [2] = format: functional, cell-based; remark: listed apart in the source
[3] = target: T1, Trace amine-associated receptor 1 (Homo sapiens, UniProt Q96RJ0); experiment: Counterscreen for agonists of the human trace amine associated receptor 1 (hTAAR1): Fluorescence-based cell-based high throughput dose response assay to identify hTAAR1 agonist that also desensitize TAAR1 receptor response.; format: functional
T1 sequence (Q96RJ0 whole entry): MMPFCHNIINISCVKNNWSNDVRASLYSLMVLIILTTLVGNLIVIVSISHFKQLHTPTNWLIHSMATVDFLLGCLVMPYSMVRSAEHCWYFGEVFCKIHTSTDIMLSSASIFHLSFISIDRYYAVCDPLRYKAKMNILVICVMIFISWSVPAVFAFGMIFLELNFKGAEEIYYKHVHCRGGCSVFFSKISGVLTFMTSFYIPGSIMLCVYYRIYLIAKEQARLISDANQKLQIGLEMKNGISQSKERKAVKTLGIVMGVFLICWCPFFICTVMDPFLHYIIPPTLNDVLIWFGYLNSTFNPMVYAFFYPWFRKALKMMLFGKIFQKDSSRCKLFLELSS

[4] = target: T1, Trace amine-associated receptor 1; experiment: Fluorescence-based cell-based high throughput dose response assay to identify agonists of the human trace amine associated receptor 1 (TAAR1).; format: functional
Beta-galactosidase = Beta-galactosidase (Escherichia coli, UniProt Q8VNN2); experiment: Dose response counterscreen for EBI2 assay utilizing the enzyme, b-galactosidase.; format: functional
[5] = target: T2, Heat shock factor protein 1 (Mus musculus, UniProt P38532); experiment: HSF1 potentiators in luciferase reporter cells, confirmation, cell-based, NIH3T3, luminescence, dose retest (AID 435004); format: functional;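 also: stress induced by proteasome inhibitor MG132 added 30 min after compound; luciferase reporter driven by HSF1 response element in NIH3T3 cells; actives raise luminescence as potentiators of the MG132 stress response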
T2 sequence (P38532 whole entry): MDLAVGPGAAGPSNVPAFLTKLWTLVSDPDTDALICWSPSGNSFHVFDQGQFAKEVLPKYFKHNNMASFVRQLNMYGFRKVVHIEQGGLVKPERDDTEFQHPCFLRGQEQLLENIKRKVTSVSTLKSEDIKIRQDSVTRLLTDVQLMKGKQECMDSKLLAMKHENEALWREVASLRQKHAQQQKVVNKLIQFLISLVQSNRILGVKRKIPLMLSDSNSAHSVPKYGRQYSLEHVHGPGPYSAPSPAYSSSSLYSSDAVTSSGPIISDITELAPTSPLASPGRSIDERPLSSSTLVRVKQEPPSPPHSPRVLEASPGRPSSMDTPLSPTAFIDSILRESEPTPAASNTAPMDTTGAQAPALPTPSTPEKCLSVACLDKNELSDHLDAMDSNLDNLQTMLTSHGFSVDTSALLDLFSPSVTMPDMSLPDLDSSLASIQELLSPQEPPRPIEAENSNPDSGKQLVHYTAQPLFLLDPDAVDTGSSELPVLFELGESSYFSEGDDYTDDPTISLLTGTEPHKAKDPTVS

[6] = target: T3, DNA repair protein RAD52 homolog (Homo sapiens, UniProt P43351); format: functional, biochemical
T3 sequence (P43351 whole entry): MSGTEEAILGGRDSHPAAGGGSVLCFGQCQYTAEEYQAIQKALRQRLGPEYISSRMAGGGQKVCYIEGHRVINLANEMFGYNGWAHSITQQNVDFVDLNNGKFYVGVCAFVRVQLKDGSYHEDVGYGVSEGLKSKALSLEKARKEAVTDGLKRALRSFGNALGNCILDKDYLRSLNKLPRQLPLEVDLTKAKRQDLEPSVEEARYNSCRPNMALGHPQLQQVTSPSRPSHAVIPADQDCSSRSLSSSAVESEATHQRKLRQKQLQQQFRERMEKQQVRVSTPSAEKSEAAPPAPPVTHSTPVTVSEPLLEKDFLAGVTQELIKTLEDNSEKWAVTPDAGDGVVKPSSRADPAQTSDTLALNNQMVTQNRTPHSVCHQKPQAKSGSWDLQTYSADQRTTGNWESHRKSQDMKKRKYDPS

Protein Wnt-3a = Protein Wnt-3a (Mus musculus, UniProt P27467); experiment: SAR analysis of small molecule antagonists of Gli-SUFU in a Wnt3a luminescent reporter assay.; format: functional
[7] = target: T4, Replicative DNA helicase DnaB (Mycobacterium tuberculosis, UniProt P9WMR3); experiment: DnaB intein splicing inhibitors, dose response, biochemical, cell-free fluorescence (AID 449749); format: functional
T4 sequence (P9WMR3 whole entry): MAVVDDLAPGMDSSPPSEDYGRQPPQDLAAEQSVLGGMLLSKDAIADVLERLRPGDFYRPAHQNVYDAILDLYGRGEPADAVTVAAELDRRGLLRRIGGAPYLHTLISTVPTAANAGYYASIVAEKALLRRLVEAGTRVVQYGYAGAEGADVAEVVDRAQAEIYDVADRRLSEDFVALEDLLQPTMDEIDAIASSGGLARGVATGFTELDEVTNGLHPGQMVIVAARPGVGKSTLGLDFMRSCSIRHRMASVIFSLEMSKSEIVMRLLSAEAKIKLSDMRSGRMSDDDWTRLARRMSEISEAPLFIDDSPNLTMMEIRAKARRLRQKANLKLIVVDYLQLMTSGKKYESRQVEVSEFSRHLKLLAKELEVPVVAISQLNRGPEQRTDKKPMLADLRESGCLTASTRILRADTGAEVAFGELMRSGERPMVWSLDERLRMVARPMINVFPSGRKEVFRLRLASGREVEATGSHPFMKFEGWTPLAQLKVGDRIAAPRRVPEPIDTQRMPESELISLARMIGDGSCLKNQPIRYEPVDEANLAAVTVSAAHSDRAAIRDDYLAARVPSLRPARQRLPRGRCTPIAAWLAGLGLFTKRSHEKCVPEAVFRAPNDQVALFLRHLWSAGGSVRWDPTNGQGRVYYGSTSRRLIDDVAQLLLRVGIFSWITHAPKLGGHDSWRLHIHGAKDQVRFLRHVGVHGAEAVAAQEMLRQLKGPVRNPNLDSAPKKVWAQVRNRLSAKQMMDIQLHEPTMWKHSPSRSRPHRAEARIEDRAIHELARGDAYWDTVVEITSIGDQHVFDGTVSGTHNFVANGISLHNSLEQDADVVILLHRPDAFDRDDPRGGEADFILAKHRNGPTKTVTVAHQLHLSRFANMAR

Protein RecA = target: T5, Protein RecA (Mycobacterium tuberculosis, UniProt P9WHJ3); experiment: Fluorescence Cell-Free Homogeneous Dose Retest to Identify Inhibitors of RecA-Intein Splicing Activity. [Related pubchem assays (depositor defined):AID2097, AID2223, AID489010, AID492950]; format: functional
T5 sequence (P9WHJ3 whole entry): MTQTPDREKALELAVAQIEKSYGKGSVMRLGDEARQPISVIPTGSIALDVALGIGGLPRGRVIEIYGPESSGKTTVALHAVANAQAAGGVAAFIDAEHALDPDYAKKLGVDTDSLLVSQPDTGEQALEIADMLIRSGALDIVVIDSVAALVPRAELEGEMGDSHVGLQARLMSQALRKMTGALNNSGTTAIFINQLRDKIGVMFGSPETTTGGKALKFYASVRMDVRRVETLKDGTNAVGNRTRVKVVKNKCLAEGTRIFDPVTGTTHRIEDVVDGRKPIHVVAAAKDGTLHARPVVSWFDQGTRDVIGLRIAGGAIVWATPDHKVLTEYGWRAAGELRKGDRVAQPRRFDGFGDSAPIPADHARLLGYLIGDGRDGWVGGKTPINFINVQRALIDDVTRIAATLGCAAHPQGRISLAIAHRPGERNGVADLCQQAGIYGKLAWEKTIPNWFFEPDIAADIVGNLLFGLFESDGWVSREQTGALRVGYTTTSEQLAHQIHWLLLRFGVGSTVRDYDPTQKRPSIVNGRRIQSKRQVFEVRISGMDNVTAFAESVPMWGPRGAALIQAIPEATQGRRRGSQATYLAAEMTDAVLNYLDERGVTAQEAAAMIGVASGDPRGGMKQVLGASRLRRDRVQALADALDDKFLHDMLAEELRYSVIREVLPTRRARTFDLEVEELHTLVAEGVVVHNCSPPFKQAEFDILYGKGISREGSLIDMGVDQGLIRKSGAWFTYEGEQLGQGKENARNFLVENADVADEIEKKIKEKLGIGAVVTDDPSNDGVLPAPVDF

[8] = target: T6, Mitochondrial peptide methionine sulfoxide reductase (Bos taurus, UniProt P54149); format: functional;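 also: absorbance read-out, biochemical high-throughput dose-response screen for MsrA inhibitors, confirmatory; recombinant bovine MsrA coupled to E. coli TrxB with NADPH and selenocystamine; potency is for inhibitors of MsrA activity on DMSO substrate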
T6 sequence (P54149 whole entry): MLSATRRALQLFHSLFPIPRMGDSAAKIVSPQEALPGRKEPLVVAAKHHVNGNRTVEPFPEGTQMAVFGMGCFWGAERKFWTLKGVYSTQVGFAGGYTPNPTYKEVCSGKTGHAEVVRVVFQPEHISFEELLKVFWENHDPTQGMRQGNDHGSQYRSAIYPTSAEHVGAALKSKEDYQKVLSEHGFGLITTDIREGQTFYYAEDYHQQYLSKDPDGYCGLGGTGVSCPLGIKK

[9] = target: T7, Apoptotic protease-activating factor 1 (Homo sapiens, UniProt O14727); format: functional
T7 sequence (O14727 whole entry): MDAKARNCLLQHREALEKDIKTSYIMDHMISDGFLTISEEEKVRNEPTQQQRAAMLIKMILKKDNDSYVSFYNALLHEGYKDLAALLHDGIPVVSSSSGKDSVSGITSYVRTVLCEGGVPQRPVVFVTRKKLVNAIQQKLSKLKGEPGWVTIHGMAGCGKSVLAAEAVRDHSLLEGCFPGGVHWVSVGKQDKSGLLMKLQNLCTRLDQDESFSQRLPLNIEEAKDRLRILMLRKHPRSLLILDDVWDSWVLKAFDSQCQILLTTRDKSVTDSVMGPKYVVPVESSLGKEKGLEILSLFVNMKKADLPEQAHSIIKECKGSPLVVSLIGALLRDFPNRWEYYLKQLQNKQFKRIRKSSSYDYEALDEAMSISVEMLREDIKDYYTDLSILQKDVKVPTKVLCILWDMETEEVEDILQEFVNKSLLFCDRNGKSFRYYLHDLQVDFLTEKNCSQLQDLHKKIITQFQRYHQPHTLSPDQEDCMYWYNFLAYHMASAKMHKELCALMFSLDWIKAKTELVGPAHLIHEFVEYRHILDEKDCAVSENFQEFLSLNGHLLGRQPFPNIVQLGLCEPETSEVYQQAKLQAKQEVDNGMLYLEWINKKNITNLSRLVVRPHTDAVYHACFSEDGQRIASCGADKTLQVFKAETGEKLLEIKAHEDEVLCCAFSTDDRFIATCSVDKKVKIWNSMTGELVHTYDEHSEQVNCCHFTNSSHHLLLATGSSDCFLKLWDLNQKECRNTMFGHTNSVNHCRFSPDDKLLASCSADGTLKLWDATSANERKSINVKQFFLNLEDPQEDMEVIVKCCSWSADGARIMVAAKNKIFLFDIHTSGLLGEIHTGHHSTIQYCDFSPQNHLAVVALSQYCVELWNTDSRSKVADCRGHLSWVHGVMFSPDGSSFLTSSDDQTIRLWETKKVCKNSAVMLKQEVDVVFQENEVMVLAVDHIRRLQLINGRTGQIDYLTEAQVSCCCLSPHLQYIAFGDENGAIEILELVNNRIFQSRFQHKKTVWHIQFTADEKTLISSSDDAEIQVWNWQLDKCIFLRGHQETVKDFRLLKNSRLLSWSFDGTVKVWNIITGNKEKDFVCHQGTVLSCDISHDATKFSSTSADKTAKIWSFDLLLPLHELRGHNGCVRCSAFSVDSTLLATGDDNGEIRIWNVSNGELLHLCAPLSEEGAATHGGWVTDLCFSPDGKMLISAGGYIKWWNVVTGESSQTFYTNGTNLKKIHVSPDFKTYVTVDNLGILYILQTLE

Chain of Protein Wnt-3a (P27467 whole entry): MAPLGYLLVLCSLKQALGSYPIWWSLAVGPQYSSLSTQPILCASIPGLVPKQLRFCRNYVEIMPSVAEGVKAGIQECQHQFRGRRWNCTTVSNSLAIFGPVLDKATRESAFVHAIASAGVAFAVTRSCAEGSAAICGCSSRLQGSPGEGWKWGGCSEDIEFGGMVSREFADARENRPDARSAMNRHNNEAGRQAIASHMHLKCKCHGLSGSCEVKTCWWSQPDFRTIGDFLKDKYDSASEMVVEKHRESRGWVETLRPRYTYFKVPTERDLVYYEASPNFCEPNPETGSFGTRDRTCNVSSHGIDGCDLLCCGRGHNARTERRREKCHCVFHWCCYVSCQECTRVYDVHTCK
Chain of Beta-galactosidase (Q8VNN2 whole entry): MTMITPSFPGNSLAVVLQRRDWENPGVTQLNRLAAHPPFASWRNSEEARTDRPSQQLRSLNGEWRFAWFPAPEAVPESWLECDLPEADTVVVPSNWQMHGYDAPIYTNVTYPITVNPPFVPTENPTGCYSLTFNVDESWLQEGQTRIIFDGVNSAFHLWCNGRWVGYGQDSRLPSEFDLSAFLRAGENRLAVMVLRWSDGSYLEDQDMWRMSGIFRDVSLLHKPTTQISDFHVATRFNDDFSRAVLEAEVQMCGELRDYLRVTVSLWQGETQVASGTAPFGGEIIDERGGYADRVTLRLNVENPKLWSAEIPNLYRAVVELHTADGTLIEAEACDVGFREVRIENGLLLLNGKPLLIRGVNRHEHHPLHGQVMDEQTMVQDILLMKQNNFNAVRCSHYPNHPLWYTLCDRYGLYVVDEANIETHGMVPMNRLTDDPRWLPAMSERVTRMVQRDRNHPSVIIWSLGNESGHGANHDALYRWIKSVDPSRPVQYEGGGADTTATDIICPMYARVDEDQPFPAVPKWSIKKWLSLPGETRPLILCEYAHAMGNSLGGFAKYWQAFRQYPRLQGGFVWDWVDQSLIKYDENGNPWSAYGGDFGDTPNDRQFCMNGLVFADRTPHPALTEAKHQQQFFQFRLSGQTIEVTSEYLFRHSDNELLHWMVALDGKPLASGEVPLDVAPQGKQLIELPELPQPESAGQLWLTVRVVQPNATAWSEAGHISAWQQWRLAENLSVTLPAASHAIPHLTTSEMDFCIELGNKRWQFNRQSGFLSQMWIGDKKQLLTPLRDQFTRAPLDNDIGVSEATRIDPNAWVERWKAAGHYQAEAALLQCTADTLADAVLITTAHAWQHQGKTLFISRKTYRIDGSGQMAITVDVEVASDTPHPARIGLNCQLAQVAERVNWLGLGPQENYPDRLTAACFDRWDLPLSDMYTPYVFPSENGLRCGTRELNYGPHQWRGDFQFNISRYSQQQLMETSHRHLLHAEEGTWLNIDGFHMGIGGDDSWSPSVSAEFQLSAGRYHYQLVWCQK

For `CCn1c(C)nc2cc(C(=O)NNC(=O)Nc3ccc(Cl)cc3)ccc21`, the EC50 (cells [1]) was > 29.9 µM (inactive), the IC50 (cells [2]) was > 29.9 µM (inactive) and the IC50 [3] was > 29.9 µM (inactive). For the same molecule, the EC50 [4] was > 29.9 µM (inactive).
For `Cn1c(=O)c(=O)n(C)c2cc(S(=O)(=O)NCCc3ccccc3)ccc21`, the EC50 (cells [1]) was > 29.9 µM (inactive), the IC50 (cells [2]) was > 29.9 µM (inactive) and the IC50 [3] was 8.95 µM (active). For the same molecule, the EC50 [4] was 2.21 µM (active).
For `CCOC(=O)N1CCN(C(=O)c2cc3c(s2)-c2c(C)cccc2OC3)CC1`, the IC50 (Beta-galactosidase) was > 80 µM (inactive).
With `O=C(CSc1ccc(Cl)cc1)N1CCN(c2c(Cl)cccc2[N+](=O)[O-])CC1` the EC50 [5] was 14.8 µM (active) and the IC50 (Beta-galactosidase) was > 80 µM (inactive).
For `Cc1ccc(Nc2ccc(C(=O)NC3CCCCC3)cn2)cc1`, the IC50 (Beta-galactosidase) was > 80 µM (inactive).
In the case of `CCCCCCCCCCCCCCCC[n+]1ccccc1`, the AC50 [6] is reported as 4.21 µM (active).
With `CC(=NCCc1ccccc1)C1=C(O)OCC1` the EC50 (cells [1]) was > 30 µM (inactive), the IC50 (cells [2]) was > 30 µM (inactive) and the IC50 [3] was 2.35 µM (active). For the same molecule, the EC50 [4] was 0.65 µM (active).
For `Cc1nc(NC(=O)c2ccccc2)cc(N2CCCC2)n1`, the IC50 (Protein Wnt-3a) was > 21.8 µM (inactive).
With `O=C(Nc1cc(N2CCCCC2)ncn1)c1ccsc1` the IC50 (Protein Wnt-3a) was > 21.8 µM (inactive).
In the case of `CCN(CC)c1cc(NC(=O)c2cccc(F)c2)ncn1`, the IC50 (Protein Wnt-3a) is reported as > 21.8 µM (inactive).
With `O=C(O)c1cccc(NC2=C(n3nnc4ccccc43)C(=O)c3ccccc3C2=O)c1` the AC50 [7] was 2.53 µM (active), the EC50 (Protein RecA) was 2.26 µM (active) and the IC50 [8] was 31.4 µM (inactive). The IC50 [9] was 10.9 µM (active).

— ChEMBL document CHEMBL1201862, “PubChem BioAssay data set” (2004)
